How the values were obtained:
Assay type in all cases: cell-based
[1] = test system: bacteria (Escherichia coli, Staphylococcus aureus, Pseudomonas aeruginosa, and Salmonella enterica); experiment: Antimicrobial performance of treated textiles against bacteria (Experimental Examples 1); settings: 6% o.w.f. of the chemical; for efficiency in killing bacteria: polyester textile treated with one single agent; for efficiency for killing bacteria: cotton textile treated with one single agent
Experimental: (§1) All microbiological tests were performed with cultures of the bacteria Escherichia coli American Type Culture Collection (ATCC) 25922, Staphylococcus aureus ATCC 6538, Pseudomonas aeruginosa ATCC 15442, Salmonella enterica ATCC 10708, and of the fungi Candida albicans ATCC 10231, and Aspergillus Niger ATCC […].
(§2) With Experimental Examples 1, the effect of the application of different numbers of agents to the starting textile materials was studied. The agents applied to the cotton material were taken from the group of silver, PHMB, and propiconazole, which are the three most preferred antimicrobial agents for treating cellulosic textile materials. The agents applied to the polyester material were taken from the group of silver, propiconazole, and quaternary ammonium organosilane compounds, which are the three most preferred antimicrobial agents for treating synthetic textile materials.
(§3) The textiles were treated with (1) each of the agents from the respective group individually, (2) all three tuple combinations of agents from the respective groups, and (3) all three agents from the respective groups together. The total amount of the chemicals in all experiments was 6% o.w.f. Thus, where one single agent was applied to the textile, 6% o.w.f. of the respective chemical was used, where a combination of two agents was applied, 3% o.w.f. of each of the respective two chemicals was used, and where a combination of three agents was applied, 2% o.w.f. of each of the respective three chemicals was used.
(§4) The finishing process was as described above in the context of the working examples, but since no hydrophilic/stain release agent was applied, there was only one process cycle. The fabric was exhausted and then dried and cured in one single pass through the stenter, with the process parameters as described above.

[2] = test system: fungi (Candida albicans and Aspergillus Niger); experiment: Antimicrobial performance of treated textiles against fungi (Experimental Examples 1); settings: 6% o.w.f. of the chemical
Experimental: as §1, §2, §3, §4

[3] = test system: microorganisms; experiment: Tests made by the inventor on alternative metals and azoles adhered to textiles (results not reproduced)
[4] = polyester textile treated with one single agent
[5] = cotton textile treated with one single agent

Compound	efficiency in killing bacteria [1]	efficiency for killing fungi [2, 4]	efficiency for killing bacteria [1]	efficiency for killing fungi [2, 5]	antimicrobial performance compared with zinc and copper [3]
CCCCCCCCCCCCCCCCCC[N+](C)(C)CCC[Si](OC)(OC)OC [Dimethyloctadecyl[3-(trimethoxysilyepropyl]ammonium chloride]	about equally efficient	not efficient	–	–	–
propiconazole [reference compound]	about as efficient against bacteria as silver and quaternary ammonium organosilane	works well	not efficient	efficient	–
silver	about equally efficient	not efficient	about equally efficient	perform poorly	considerably higher than that of zinc, and even much higher than that of copper
